Measurements taken from the supplement of paper PMC10307832.

Legend:
Experiment in all cases: relative viability (nuclei count vs DMSO), 5 days (fraction); higher = more cells survive
[1] = compound: CC1=CC=C(C=C1)C(=O)CN2C3=C(CCCC3)SC2=N [Pifithrin_alpha] + CC(=O)c1c(C)c2cnc(Nc3ccc(N4CCNCC4)cn3)nc2n(C2CCCC2)c1=O [Palbociclib] (partner 0.5 µM)
How it was run: (§1)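 A single step with final 0.05% Triton X-100, 1% formaldehyde and 1 ug/ml Hoechst fixed the cells and stained nuclei 5 days after treatment. Lung cancer cell lines in 1536-well plates had been treated by pin tool the day after seeding with one drug alone or a fixed anchor-drug dose plus five library-drug doses (not always all listed) in √10 steps, and nuclei were counted on 4× images. Relative viability is the ratio of nuclei in treated wells to nuclei in vehicle wells, taken as the median of duplicate plates.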

[2] = compound: CNC(=O)c1ccccc1Sc1ccc2c(/C=C/c3ccccn3)n[nH]c2c1 [Axitinib] + C[C@@H](Oc1cc(-c2cnn(C3CCNCC3)c2)cnc1N)c1c(Cl)ccc(F)c1Cl [Crizotinib] (partner 1 µM)
How it was run: as §1

[3] = compound: CC1=CC=C(C=C1)C(=O)CN2C3=C(CCCC3)SC2=N [Pifithrin_alpha] + N=C(N)NC(=N)NCCc1ccccc1 [Phenformin] (partner 250 µM)
How it was run: as §1

[4] = compound: Nc1nc(Nc2ccc3c(c2)CC[C@@H](N2CCCC2)CC3)nn1-c1cc2c(nn1)-c1ccccc1CCC2 [Bemcentinib] + CC(C)C[C@H](NC(=O)[C@H](Cc1ccccc1)NC(=O)c1cnccn1)B(O)O [Bortezomib] (partner 0.002 µM)
How it was run: as §1

Cell Line	relative viability ([1]; first compound 1 µM)	relative viability ([1]; first compound 3.162 µM)	relative viability ([1]; first compound 10 µM)	relative viability ([1]; first compound 31.62 µM)	relative viability ([1]; first compound 100 µM)	relative viability ([2]; first compound 0.005 µM)	relative viability ([2]; first compound 0.01581 µM)	relative viability ([2]; first compound 0.05 µM)	relative viability ([2]; first compound 0.1581 µM)	relative viability ([2]; first compound 0.5 µM)	relative viability ([3]; first compound 1 µM)	relative viability ([3]; first compound 3.162 µM)	relative viability ([3]; first compound 10 µM)	relative viability ([3]; first compound 31.62 µM)	relative viability ([3]; first compound 100 µM)	relative viability ([4]; first compound 0.04 µM)	relative viability ([4]; first compound 0.1265 µM)	relative viability ([4]; first compound 0.4 µM)	relative viability ([4]; first compound 1.265 µM)	relative viability ([4]; first compound 4 µM)
SK-MES-1	0.294	0.286	0.267	0.266	0.267	1.06	0.974	1.07	1.02	1.11	0.571	0.67	0.659	0.474	0.571	–	–	–	–	–
NCI-H1648	0.221	0.313	0.305	0.337	0.296	–	–	–	–	–	–	–	–	–	–	–	–	–	–	–
PC-3 [JPC-3]	–	0.519	–	0.455	0.458	1.04	–	0.943	0.95	1.11	0.497	0.482	0.409	0.47	0.488	0.803	0.948	0.8	0.906	0.869
NCI-H1666	0.642	0.68	0.591	0.612	0.646	1.29	0.97	1.12	0.931	1.14	0.525	0.52	0.425	0.455	0.436	0.649	0.937	0.854	0.895	0.759
IA-LM	–	–	–	–	–	0.95	0.737	1.05	1.04	0.982	–	–	–	–	–	0.663	0.696	0.799	0.923	0.808
HCC-78	0.449	0.412	0.454	0.409	0.488	0.345	0.35	0.301	0.338	0.375	0.433	0.727	0.664	0.645	0.69	0.485	0.516	0.556	0.541	0.491
HCC-366	0.33	0.289	0.28	–	0.258	0.628	0.657	0.603	0.487	0.669	0.662	0.658	0.618	–	0.533	0.985	1.16	1.35	1.1	1.06
NCI-H520	0.203	0.254	0.26	0.205	0.222	0.72	0.829	0.734	0.542	0.776	0.579	0.554	0.566	–	0.581	0.517	0.472	0.711	0.591	0.61
NCI-H1355	0.376	0.283	0.301	0.249	0.257	1.13	1.06	1.1	0.948	1.29	0.456	0.401	0.378	0.351	0.38	1.22	1.3	1.15	1.24	1.26
SW 1573	–	0.395	0.367	0.241	0.266	0.745	0.844	0.905	0.917	0.913	0.357	0.39	0.436	0.37	0.346	1.09	0.973	1.14	0.97	1.15
COR-L 105	0.382	0.42	0.412	0.357	0.406	0.841	0.965	0.86	0.776	0.968	0.525	0.484	0.55	0.436	0.403	0.766	0.71	1.04	0.739	0.74
COR-L23	0.287	0.26	0.281	–	0.267	0.696	0.564	0.596	0.623	0.778	0.465	0.46	0.426	–	0.509	1.16	1.14	1.17	1.27	1.24
NCI-H322M	0.381	0.56	0.501	0.474	0.525	0.889	0.828	0.926	0.888	0.889	0.825	0.728	0.869	0.713	0.728	1.25	1.25	1.23	1.34	1.34
NCI-H2347	0.468	0.415	0.442	0.386	0.365	0.644	1.04	0.739	0.743	0.85	0.452	0.471	0.394	0.416	0.543	0.831	1.03	0.967	0.901	1.11
RERF-LC-KJ	0.91	0.974	0.886	0.66	0.635	0.801	0.856	0.862	0.771	0.823	0.454	0.402	0.368	0.316	0.263	1.1	1.29	1.3	1.21	1.09
NCI-H2228	0.833	0.75	0.659	0.453	0.853	0.443	0.473	0.384	0.612	0.438	0.312	0.265	0.374	0.256	0.205	–	1.04	1.12	0.93	1.08
A549	–	–	–	–	–	0.763	0.734	0.776	0.49	0.744	–	0.272	0.374	0.315	0.305	–	–	–	–	–
NCI-H358	0.134	0.151	0.137	0.115	0.119	0.401	0.636	0.625	0.549	0.596	0.353	0.389	0.357	0.272	0.344	–	–	–	–	–
NCI-H2342	0.516	0.494	0.493	0.53	0.501	–	–	–	–	–	0.484	0.622	0.543	0.585	0.553	–	–	–	–	–
